Measurements as given in patent EP3300715A1, “USE OF DIALKYLCARBONATES OF BRANCHED ALCOHOLS AS DISPERSION AGET” (BASF SE, priority 2016, dated 2018).

Test: Pigment dispersion test: medium added dropwise to 10 g pigment until a paste forms; maximum % pigment in the medium
Format: physicochemical
Settings: medium added dropwise to 10 g pigment (Eisenoxid, Titanoxid) until paste, no excess medium; compared with other media; shown in figure
Source text: Es hat sich überraschend gezeigt, dass die erfindungsgemäß verwendeten Dialkylcarbonate gegenüber anderen Medien hervorragende Dispersionen mit Feststoffen bilden.
Das Experiment wurde wie folgt durchgeführt. Das Medium wurde tropfenweise zu 10 g Pigment (grau = Eisenoxid, dunkelgrau = Titanoxid), bis sich eine Paste gebildet hatte (kein Medium im Überschuss). Die folgende Rechnung entspricht der maximalen Menge Pigment in prozent, die in das jeweilige Medium gegeben werden kann: % Pigment = m(Pigment)/m(Pigment) + m(Medium) × 100 [formula]

## CCCCCC(CCC)COC(=O)OCC(CCC)CCCCC (stereo not shown) [Di-(2-Propyl-1-heptyl)carbonat]
  Pigmentkonzentrationen (% Pigment, maximale Menge Pigment im Medium): höchsten Pigmentkonzentrationen
